Measured values: patent US20040086904A1, “Screening assay for cotranslational translocation interfering compounds” (priority 2001, published 2004)

Experiments:
E-Selectin = target: T1, E-Selectin (Homo sapiens, UniProt P16581); test: Transient expression of E-Selectin in HEK293 cells, Western blot / immunoblot; type: cell-based; conditions: transiently transfected HEK293 cells, 48 hours post-transfection, increasing concentrations
T1 construct: Full length cDNAs of the adhesion molecules VCAM-1, ICAM-1 and E-Selectin are transcribed and translated; host or cells: cell-free: coupled TNT reticulocyte lysate (Promega) with dog pancreatic microsomes
T1 sequence (P16581 22-610): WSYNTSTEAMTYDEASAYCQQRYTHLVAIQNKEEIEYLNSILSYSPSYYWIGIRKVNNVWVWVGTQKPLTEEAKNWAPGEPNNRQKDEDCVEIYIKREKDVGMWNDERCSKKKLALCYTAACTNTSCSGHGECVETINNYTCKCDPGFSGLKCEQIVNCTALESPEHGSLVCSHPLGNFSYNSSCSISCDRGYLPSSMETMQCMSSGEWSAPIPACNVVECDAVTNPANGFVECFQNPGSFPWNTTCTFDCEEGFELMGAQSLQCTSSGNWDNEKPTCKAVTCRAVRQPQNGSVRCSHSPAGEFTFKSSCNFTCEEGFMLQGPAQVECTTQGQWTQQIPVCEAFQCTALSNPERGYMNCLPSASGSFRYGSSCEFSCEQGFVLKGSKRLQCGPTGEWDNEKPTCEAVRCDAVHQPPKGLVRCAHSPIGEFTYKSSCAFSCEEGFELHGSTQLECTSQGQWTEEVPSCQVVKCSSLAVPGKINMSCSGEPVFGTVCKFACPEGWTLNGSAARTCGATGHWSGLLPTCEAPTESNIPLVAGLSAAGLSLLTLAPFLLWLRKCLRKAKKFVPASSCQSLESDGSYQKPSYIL
Method: The E-Selectin and ICAM-1 expression vectors pCDM8-E-selectin and pCDM8-ICAM-1 allowing transient expression in mammalian cells and cell-free translation are obtained from R&D Systems. VCAM-1 cDNA is obtained by reverse transcription of total RNA from TNF-α stimulated primary human umbilical vein endothelial cells (HUVEC) as follows. After extraction of total RNA with Trizol (GibcoBRL) according to the suppliers recommendations, reverse transcription (RT) PCR on approximately 3 μg total HUVEC RNA is performed using the Advantage High Fidelity PCR kit (CLONTECH) under standard conditions with N- and C-terminal VCAM-1-specific sense and antisense oligonucleotide primers, respectively. Primers are tailed, introducing a Kpnl restriction site 5′ of the Kozak sequence and a Xhol site 3′ of the stop codon. Placental SEAP is amplified accordingly by PCR using plasmid pBC 12/PLAP489 (Berger et al., 1988) as a template and similar tailed SEAP-specific sense and antisense oligonuclotide primers. The SEAP and VCAM-1 cDNAs are isolated and cloned into the pCR2.1 vector (TA cloning kit, Invitrogen). […] Approximately equal molar quantities of each PCR product A and B are phosphorylated and ligated. […]
Protein expression in cells is analyzed by Western blot and subsequent immunoblot analysis. […]

VCAM-1 = target: T2, VCAM-1 (Homo sapiens, UniProt P19320)
T2 sequence (P19320 25-739): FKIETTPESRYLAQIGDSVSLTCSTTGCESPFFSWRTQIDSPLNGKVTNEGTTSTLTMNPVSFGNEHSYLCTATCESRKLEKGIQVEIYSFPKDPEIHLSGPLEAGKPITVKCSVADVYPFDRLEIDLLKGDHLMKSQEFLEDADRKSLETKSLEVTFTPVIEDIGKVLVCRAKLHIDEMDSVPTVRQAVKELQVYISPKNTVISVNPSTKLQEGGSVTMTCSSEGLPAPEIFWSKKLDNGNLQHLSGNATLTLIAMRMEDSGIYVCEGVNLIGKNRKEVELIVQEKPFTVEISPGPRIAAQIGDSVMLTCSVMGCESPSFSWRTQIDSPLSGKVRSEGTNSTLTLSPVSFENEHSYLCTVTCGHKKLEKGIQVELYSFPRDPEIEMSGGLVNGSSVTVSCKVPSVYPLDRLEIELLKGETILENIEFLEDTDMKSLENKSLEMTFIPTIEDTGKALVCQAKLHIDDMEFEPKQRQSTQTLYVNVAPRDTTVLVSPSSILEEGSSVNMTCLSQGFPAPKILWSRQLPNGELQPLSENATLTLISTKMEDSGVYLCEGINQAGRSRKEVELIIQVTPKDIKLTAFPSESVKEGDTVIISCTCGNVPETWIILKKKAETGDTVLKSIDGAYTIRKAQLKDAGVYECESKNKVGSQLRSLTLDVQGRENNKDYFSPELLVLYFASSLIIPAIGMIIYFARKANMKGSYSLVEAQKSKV
Method: Cell-free translations are carried out in the coupled TNT reticulocyte lysate system (Promega) using bacteriophage T7 polymerase according to the suppliers recommendations in a final volume of 25 μl and in the presence of [^35S]-methionine (Redivue, 10 mCi/ml, Amersham). To study cotranslational translocation across the ER membrane dog pancreatic microsomes (Promega) are present during translation reactions at concentrations between 1 to 2.5 μl per 25 μl reaction mixture. After translation/translocation, 2.5 μl of the reaction mixture are denatured in SDS loading buffer (12.5 mM Tris-HCl, pH 6.8, 80 μM EDTA, 26 mM DTT, 1% SDS, 100 g/ml bromphenol blue, 0.01% NaN3) for 5 minutes at 95° and subjected to SDS-PAGE (4-20% gradient or 15% Excel gels, Pharmacia). Gels are analyzed by autoradiography and quantitated using an Instant Phosphoimager (Packard). […]
To investigate the possibility that the candidate compound is interfering at this early stage of protein expression the effect of the drug on the process of cotranslational translocation in a cell-free assay system is analysed. […]

VCAMSP-SEAP construct = test: SP-SEAP assay, secretion of SEAP into the medium; type: cell-based; conditions: transiently transfected cells, increasing concentrations
Method: (§1) Cell Culture and Transient Transfections HEK293 cells are maintained in Dulbeccos' modified Eagle's medium (DMEM, Gibco-BRL), supplemented with 10% heat-inactivated fetal calf serum (FCS, Bio-Whittaker) and 100 Units/ml each of penicillin (BC) and streptomycin (Gibco-BRL) at 37° in a 5% humidified CO2 incubator. HUVEC cells are cultured in endothelial cell basal medium (EBM, Clonetics Corp.) supplemented with 10% FCS, 5×10^−4 M dibutyryl cAMP (Sigma), 1 μg/ml hydrocortisone (Sigma) and 10 ng/ml human EGF (Boehringer) at 37° in a 5% humidified CO2 incubator. VCAM-1 production is stimulated by incubation with 100U/ml TNF-α for ca. 8 hours. For transient transfection, HEK293 cells are seeded into 6-well or 24-well cell culture dishes at a density of 6×10^5 cells/well or 1.5×10^5 cells/well, respectively, the day prior to transfection and grown to 50-70% confluency. Cells are transfected with 2 μg or 1 μg of plasmid DNA, respectively, using the SuperFect reagent (Qiagen) according to the supplier's recommendations. Cells are incubated either without or with addition of a candidate compound, respectively, at concentrations indicated for ca. 24 to 48 hours. […]
(§2) Human placental SEAP levels in cell supernatants are determined using either a fluorescence-based assay or an assay that measures light absorbance at 405 nm accompanying hydrolysis of pNPP according to the method described (Berger et al., 1988). […] 20 μl of 120 mM pNPP in 1x SEAP buffer prewarmed to 37° is added and the change in absorbance at 37° is plotted. […] For determination of SEAP levels by a fluorescence-based assay the Atto Phos AP Fluorescent Substrate Sysem (Promega) is used according to the manufacturer's instructions.
(§3) For the establishment and as a first proof of principle of an assay (system) according to the present invention, SP-reporter gene fusion constructs are generated using the SP of compound sensitive and insensitive proteins, respectively, and the mature sequence of placental SEAP as the reporter gene (see FIG. 5). […] Finally, secretion of the reporter SEAP protein into the medium is determined. […]

[1] = test system: E-SelectinSP-SEAP fusion protein; test: SP-SEAP assay, secretion of SEAP into the medium; type: cell-based; conditions: transiently transfected cells, increasing concentrations
Method: as §1, §2, §3

[2] = test system: VCAMSP(15+4)-SEAP construct; test: SP-SEAP assay, secretion of SEAP into the medium; type: cell-based; conditions: transiently transfected cells, increasing concentrations, dose-dependent
Method: as §1, §2, §3

VEGF SP-SEAP construct = test: SP-SEAP assay, secretion of SEAP into the medium; type: cell-based; conditions: transient overexpression in mammalian cells, increasing concentrations, dose dependent, compared to VCAM-1 SP-SEAP
Method: (§4) Cell Culture and Transient Transfections HEK293 cells are maintained in Dulbeccos' modified Eagle's medium (DMEM, Gibco-BRL), supplemented with 10% heat-inactivated fetal calf serum (FCS, Bio-Whittaker) and 100 Units/ml each of penicillin (BC) and streptomycin (Gibco-BRL) at 37° in a 5% humidified CO2 incubator. HUVEC cells are cultured in endothelial cell basal medium (EBM, Clonetics Corp.) supplemented with 10% FCS, 5×10^−4 M dibutyryl cAMP (Sigma), 1 μg/ml hydrocortisone (Sigma) and 10 ng/ml human EGF (Boehringer) at 37° in a 5% humidified CO2 incubator. VCAM-1 production is stimulated by incubation with 100U/ml TNF-α for ca. 8 hours. For transient transfection, HEK293 cells are seeded into 6-well or 24-well cell culture dishes at a density of 6×10^5 cells/well or 1.5×10^5 cells/well, respectively, the day prior to transfection and grown to 50-70% confluency. Cells are transfected with 2 μg or 1 μg of plasmid DNA, respectively, using the SuperFect reagent (Qiagen) according to the supplier's recommendations. Cells are incubated either without or with addition of a candidate compound, respectively, at concentrations indicated for ca. 24 to 48 hours. For proteasome inhibition experiments Lactacystin (Calbiochem) is added at a final concentration of 5 μM alone or together with a candidate compound 5 hours post-transfection, respectively.
(§5) Human placental SEAP levels in cell supernatants are determined using either a fluorescence-based assay or an assay that measures light absorbance at 405 nm accompanying hydrolysis of pNPP according to the method described (Berger et al., 1988). Briefly, a 500 μl aliquot of medium is removed from the culture dish, clarified for 1 min at 14,000×g and heated for 5 minutes at 65°. An aliquot of medium (10 μl-100 μl) is adjusted to 1x SEAP buffer (1.0 M diethanolamine, pH 9.8, 0.5 mM MgCl2, 10 mM L-homoarginine) in a final volume of 200 μl in a 96-well flat bottom culture dish (Nunc) and prewarmed to 37° for 10 min. 20 μl of 120 mM pNPP in 1x SEAP buffer prewarmed to 37° is added and the change in absorbance at 37° is plotted. Heating step and inclusion of L-homoarginine in the assay buffer inhibit any endogenous phophatase activity. For determination of SEAP levels by a fluorescence-based assay the Atto Phos AP Fluorescent Substrate Sysem (Promega) is used according to the manufacturer's instructions.
(§6) To further validate the novel assay system claimed in the present invention we generated SP-SEAP fusion constructs similarily to the method as described in example 1, but using the SP of other protein targets playing critical roles in various disease processes and tested their functionality by transient overexpression in mammalian cells in the absence or presence of increasing concentrations of compound CP as described (FIG. 7). […]

[3] = test system: MCP-1 SP-SEAP fusion construct; test: SP-SEAP assay, secretion of SEAP into the medium; type: cell-based; conditions: transient overexpression in mammalian cells, increasing concentrations
Method: as §4, §5, §6

[4] = test system: IL4 SP-SEAP fusion construct; test: SP-SEAP assay, secretion of SEAP into the medium; type: cell-based; conditions: transient overexpression in mammalian cells, increasing concentrations
Method: as §4, §5, §6

[5] = test system: IL-12p40 SP-SEAP fusion construct; test: SP-SEAP assay, secretion of SEAP into the medium; type: cell-based; conditions: transient overexpression in mammalian cells, increasing concentrations
Method: as §4, §5, §6

synthesis of E-Selectin (E-Selectin): not-affected | core-glycosylated and protease-protected form of VCAM-1 (translocation across microsomal membranes) (VCAM-1): inhibited by increasing concentrations
Structure (SMILES): CCCCC(C)CC1NC(=O)C(Cc2cn(OC)c3ccccc23)N(C)C(=O)C(CC(C)C)NC(=O)C(CC(C)C)N(C)C(=O)C(CC(C)CCCC)NC(=O)C(CCC(=O)OCCC)OC(=O)C(C)N(C)C1=O (stereo not drawn) [CP]
sensitivity of SEAP secretion to the compound (VCAMSP-SEAP construct): slight sensitivity | sensitivity of SEAP secretion to the compound [1]: compound-insensitive | sensitivity of SEAP secretion to the compound [2]: full sensitivity | sensitivity of SEAP secretion to the compound (VEGF SP-SEAP construct): sensitive | sensitivity of SEAP secretion to the compound [3]: insensitive | sensitivity of SEAP secretion to the compound [4]: insensitive | sensitivity of SEAP secretion to the compound [5]: insensitive
